Assays:
Rattus norvegicus [1] = experiment: Antiinflammatory activity in Wistar rat assessed as inhibition of carrageenan-induced paw edema at 10 mg/kg indomethacin mol equivalent, ip administered 1 hr prior to carrageenan challenge measured at 1 hr relative to control; format: functional; conditions: route intraperitoneal
Rattus norvegicus [2] = experiment: Antiinflammatory activity in Wistar rat assessed as inhibition of carrageenan-induced paw edema at 10 mg/kg indomethacin mol equivalent, ip administered 1 hr prior to carrageenan challenge measured at 2 hrs relative to control; format: functional; conditions: route intraperitoneal
Rattus norvegicus [3] = experiment: Antiinflammatory activity in Wistar rat assessed as inhibition of carrageenan-induced paw edema at 10 mg/kg indomethacin mol equivalent, ip administered 1 hr prior to carrageenan challenge measured at 3 hrs relative to control; format: functional; conditions: route intraperitoneal
Rattus norvegicus [4] = experiment: Antiinflammatory activity in Wistar rat assessed as inhibition of carrageenan-induced paw edema at 10 mg/kg indomethacin mol equivalent, ip administered 1 hr prior to carrageenan challenge measured at 4 hrs relative to control; format: functional; conditions: route intraperitoneal
Rattus norvegicus [5] = experiment: Antiinflammatory activity in Wistar rat assessed as inhibition of carrageenan-induced paw edema at 10 mg/kg indomethacin mol equivalent, ip administered 1 hr prior to carrageenan challenge measured at 24 hrs relative to control; format: functional; conditions: route intraperitoneal
Mus musculus [6] = experiment: Toxicity in albino mouse assessed as appearance of toxic symptoms at 50 to 100 mg/kg indomethacin mol equivalent, ip measured after 24 hrs; format: organism-based; design: dose 50-100 mg/kg, route intraperitoneal; conditions: in vivo
Mus musculus [7] = experiment: Toxicity in albino mouse assessed as mortality at 50 to 100 mg/kg indomethacin mol equivalent, ip measured after 24 hrs; format: organism-based; design: dose 50-100 mg/kg, route intraperitoneal; conditions: in vivo
Rattus norvegicus [8] = experiment: Ulcerogenic activity in Wistar rat assessed as ulcer index at 10 mg/kg indomethacin mol equivalent, po administered 3 days relative to control; format: toxicity, organism-based; design: dose 10 mg/kg, route oral; conditions: in vivo, 72 h
Rattus norvegicus [9] = experiment: Antiinflammatory activity in Wistar rat assessed as inhibition of carrageenan-induced paw edema at 10 mg/kg, ip administered 1 hr prior to carrageenan challenge measured at 1 hr relative to control; format: functional; conditions: route intraperitoneal
Rattus norvegicus [10] = experiment: Antiinflammatory activity in Wistar rat assessed as inhibition of carrageenan-induced paw edema at 10 mg/kg, ip administered 1 hr prior to carrageenan challenge measured at 2 hrs relative to control; format: functional; conditions: route intraperitoneal
Rattus norvegicus [11] = experiment: Antiinflammatory activity in Wistar rat assessed as inhibition of carrageenan-induced paw edema at 10 mg/kg, ip administered 1 hr prior to carrageenan challenge measured at 3 hrs relative to control; format: functional; conditions: route intraperitoneal
Rattus norvegicus [12] = experiment: Ulcerogenic activity in Wistar rat assessed as ulcer index at 10 mg/kg, po administered 3 days relative to control; format: toxicity, organism-based; design: dose 10 mg/kg, route oral; conditions: in vivo, 72 h

SMILES	inhibition in vivo (Rattus norvegicus [1]) [%]	inhibition in vivo (Rattus norvegicus [2]) [%]	inhibition in vivo (Rattus norvegicus [3]) [%]	inhibition in vivo (Rattus norvegicus [4]) [%]	inhibition in vivo (Rattus norvegicus [5]) [%]	Activity (Mus musculus [6])	Activity (Mus musculus [7])	UI (Rattus norvegicus [8])	inhibition in vivo at 10 mg/kg (Rattus norvegicus [9]) [%]	inhibition in vivo at 10 mg/kg (Rattus norvegicus [10]) [%]	inhibition in vivo at 10 mg/kg (Rattus norvegicus [11]) [%]	UI (Rattus norvegicus [12])
CC(=O)Nc1ccc(O)c(C(=O)O)c1	43.3	7.9	1.3	0	0	–	–	–	–	–	–	–
Cc1ncc([N+](=O)[O-])n1CCOC(=O)c1cc(NC(=O)CNC(=O)OCc2ccccc2)ccc1O	56.1	56.5	57	52.8	17.1	–	–	–	–	–	–	–
Cc1ncc([N+](=O)[O-])n1CCOC(=O)c1cc(NC(=O)[C@H](C)NC(=O)OCc2ccccc2)ccc1O	58.5	37.5	37.1	36.1	11.6	–	–	–	–	–	–	–
Cc1ncc([N+](=O)[O-])n1CCOC(=O)c1cc(NC(=O)[C@H](Cc2ccccc2)NC(=O)OCc2ccccc2)ccc1O	54.8	30.1	29	27.5	33.2	–	–	–	–	–	–	–
Cc1ncc([N+](=O)[O-])n1CCOC(=O)c1cc(NC(=O)[C@@H](NC(=O)OCc2ccccc2)C(C)C)ccc1O	74.4	64.5	61.5	58.2	51.7	Non-toxic	Non-toxic	0	–	–	–	–
Cc1ncc([N+](=O)[O-])n1CCOC(=O)c1cc(NC(=O)[C@H](CCCCN)NC(=O)OCc2ccccc2)ccc1O	44.3	37.8	36.9	33.5	23.4	–	–	–	–	–	–	–
CC(=O)Nc1ccc(O)c(C(=O)OCCn2c([N+](=O)[O-])cnc2C)c1	63.4	24.5	16.6	15.5	0	–	–	–	–	–	–	–
Cc1ncc([N+](=O)[O-])n1CCOC(=O)c1cc(NC(=O)C(C)NC(=O)OCc2ccccc2)ccc1O (racemic)	57.9	47	44.8	41.1	0	–	–	–	–	–	–	–
COc1ccc2c(c1)c(CC(=O)O)c(C)n2C(=O)c1ccc(Cl)cc1 [INDOMETHACIN]	–	–	–	–	–	–	–	–	48.3	55.3	61.3	6
Nc1ccc(O)c(C(=O)O)c1 [MESALAMINE]	63.8	53.2	57.5	52.3	38.6	–	–	–	–	–	–	–
Cc1ncc([N+](=O)[O-])n1CCO [METRONIDAZOLE]	66.3	66.3	60.8	58.9	0	Non-toxic	Non-toxic	0	–	–	–	–

— ChEMBL document CHEMBL3421592, “Synthesis and QSAR study of novel anti-inflammatory active mesalazine-metronidazole conjugates” (Bioorg Med Chem Lett, 2015)
